The subject of data set [1] is S. mansoni adult worm. Put plainly: In vitro antischistosomal assay (viability of ex vivo adult worms). It counts as cell-based, Schistosoma mansoni. Conditions: for Time until all parasites were dead: 50 μM; for Antiparasitic activity in initial screen: 50 µM, after 72 h, adult worms; for EC50: 72 h, ex vivo adult schistosomes, brackets = 95% confidence interval. As to the method: For biological screening, S. mansoni adult parasites were isolated from the mouse infection model (parasite ex vivo) and all compounds were initially screened at 50 µM. The gold-standard antiparasitic compound praziquantel was used as a positive control and DMSO at 0.5% v/v (representing the highest concentration of solvent) served as a negative control. […] For the remaining compounds tested, no EC50 values could be calculated due to lack of activity at 50 μM. […] In tandem, our findings confirm that pyrazolines have a potent antiparasitic activity. Indeed, few compounds in the literature are active at low concentrations for review see[11],[19]. According to criteria established by the World Health Organization (WHO) for antiparasitic hits, leads, and drug candidates, at the start of a screening campaign a compound should inhibit mobility of helminths in vitro at 10 μg/mL[20], commonly ranging from 30 to 40 μM. Thus, the anthelminthic activity of pyrazolines surpasses criteria established by the WHO.
Adult schistosomes (BH strain) were isolated from infected mice and cultured in RPMI medium + 10% fetal calf serum and 100 U/mL penicillin and 100 μg/mL streptomycin in a 24-well culture plate (Corning, New York, NY, USA) containing one pair of parasites per well at 37 °C and 5% CO2 (Panasonic Healthcare, Sakata, Oizumi-machi, Japan)[38],[39]. For antischistosomal assay, compounds were dissolved in DMSO (final concentration of 0.5% v/v). Each drug concentration was tested at least in triplicate, and the experiments were repeated three times. The initial concentration of the pyrazolines and praziquantel was 50 μM and 3 μM, respectively, which was serially diluted in medium with twofold dilutions to give six concentrations[40],[41]. The negative control worms were assayed in RPMI 1640 medium and RPMI 1640 with 0.5% DMSO. Parasites were monitored daily at 24, 48 and 72 h under a stereomicroscope (Leica Microsystems EZ4E, Wetzlar, Germany) and an inverted microscope (BEL Engineering INV 100, Monza, MB, Italy). Egg production was evaluated daily as previously described. Parasite viability was averaged and 50% effective concentrations (EC50) were calculated using GraphPad Prism software[24],[43].

Data set [2] can be described thus: Cytotoxicity assay (MTT), Vero cells. In kind it is cell-based, African green monkey. Conditions: African green monkey, Vero cells (African green monkey kidney cells); Vero cells, 72 h, MTT; brackets = 95% confidence interval. As to the method: (§1) The selectivity index (SI) of a compound is a widely accepted parameter used to express a drug’s in vitro efficacy. Therefore, the cytotoxic effect of these six pyrazolines (16, 18, 19, 21, 22 and 23) was evaluated using a monkey cell line (Vero) and a human cell line (SH-SY5Y). Cells were incubated with each compound at a range of concentrations for determination of cytotoxic concentrations 50% (CC50). […] With the EC50 data collected for schistosomes as well as the CC50 for animal and human cells, the selectivity indices (SI) were determined for each of the pyrazolines tested (Table 1). […] A SI value ≥ 10 is in accordance with the criteria defined by the WHO for antiparasitic hits, leads, and drug candidates. […] Comparatively, the SI values achieved with pyrazolines exceeded those obtained for other relevant heterocyclic compounds with antischistosomal properties[21],[22]. Although the SI values recorded for pyrazolines were more than 10 times below those for the reference drug praziquantel, a SI value ≥ 10 fulfills and exceeds the criteria established by the WHO for potential compounds as anthelmintic agents. The cytotoxicity of compounds was tested against Vero cells (African green monkey kidney cells obtained from the American Type Culture Collection, ATCC; Manassas, VA, USA) and SH-SY5Y cells (human neuroblastoma obtained from Banco de Células do Rio de Janeiro, BCRJ, RJ, Brazil). Cells was cultured in DMEM medium supplemented with 10% fetal calf serum, penicillin (100 U/mL) and streptomycin (100 µg/mL) and 2 mM of L-glutamine at 37 °C and in a 5% CO2 humidified incubator (Panasonic). The DMEM contained 1 or 4 mg/mL glucose for Vero and SH-SY5Y cells, respectively. Cytotoxicity assay was performed as previously described[25],[26]. Briefly, cells were seeded in 96-well plates (Corning) in DMEM medium and incubated with twofold serial drug starting at 200 μM following a 24 h adhesion period at 37 °C in 5% CO2. After 72 h, MTT was added and incubation was continued for another 3 h. The plate was then read using spectrophotometer (Epoch Microplate Spectrophotometer, BioTek Instruments, Winooski, VT, USA) at 595 nm. The assay was conducted in duplicate and repeated three times. Values were expressed as percentage of the control and 50% cytotoxic concentration (CC50) values were calculated. The selectivity indices (SI) of tested compounds were calculated by dividing CC50 values obtained on mammalian cells with EC50 values determined on S. mansoni.

Data set [3] deals with Vero cells. The experiment in a line: Cytotoxicity assay (MTT), Vero cells. Conditions: CC50 (Vero) divided by EC50 (S. mansoni). In kind it is cell-based, African green monkey. On the procedure: as §1
Data set [4] can be described thus: Cytotoxicity assay (MTT), SH-SY5Y cells. It counts as cell-based, human. Conditions: human, SH-SY5Y cells (human neuroblastoma); SH-SY5Y cells, 72 h, MTT. As to the method: as §1
Data set [5] has as its system SH-SY5Y cells. Put plainly: Cytotoxicity assay (MTT), SH-SY5Y cells. It counts as cell-based, human. Conditions: CC50 (SH-SY5Y) divided by EC50 (S. mansoni). On the procedure: as §1

Usually EC50 stands for the concentration at which the effect is half-maximal. For orientation: CC50 means the concentration at which the toxic effect on the cells reaches its halfway point. On to `NC(=O)N1N=C(c2ccc(F)cc2)CC1c1ccc(Cl)cc1` (centres unmarked) [Compound 22, 5-(4-chlorophenyl)-3-(4-fluorophenyl)-4,5-dihydropyrazole-1-carboxamide], for which the “Death of all worms within 24 h” value in data set [1] (25 μM, 24 h) is reported as “death of all worms”. Further, in data set [1], the “Time until all parasites were dead” value is at most 24 h, the “Antiparasitic activity in initial screen” value is on record as “showed antiparasitic activity” and the 50% effective concentration (EC50) is 6.2 µM. The EC50 in data set [1] (Schistosoma mansoni) is under 10 µM. Besides, the midpoint of cytotoxicity in data set [2], the CC50 at 72 h, lay at 134 µM. Further, the “Monkey cells SI (selectivity index)” value in data set [3] was found to be 21.6. In data set [4], this molecule yielded a CC50 at 72 h of over 200 µM. Also, the “Human cells SI (selectivity index)” value in data set [5] is recorded as over 32.2.
With `CCCCOc1ccc(C2CC(c3ccccc3)=NN2C(N)=O)cc1` (centres unmarked) [Compound 15, 5-(4-butoxyphenyl)-4,5-dihydro-3-phenylpyrazole-1-carboxamide], the EC50 in data set [1] (Schistosoma mansoni) was over 50 µM.
As to `O=C(C1CCCCC1)N1CC(=O)N2CCc3ccccc3C2C1` (centres unmarked) [PZQ, praziquantel, reference compound], the EC50 in data set [1] (Schistosoma mansoni) was 0.93 µM. Also, the CC50 at 72 h in data set [2] and in data set [4] was over 200 µM each time.
As a reminder, the melting point is the temperature, or range, at which the solid turns liquid. With `CCCCCCCCCCCCOc1ccc(C2CC(c3ccccc3)=NN2C(N)=O)cc1` (centres unmarked) [Compound 17, 5-(4-(dodecyloxy)phenyl)-4,5-dihydro-3-phenylpyrazole-1-carboxamide], the melting point lay within 94.8 to 97.9 °C. The EC50 in data set [1] (Schistosoma mansoni) is over 50 µM.
Taken in the same sequence, the figures for `NC(=O)N1N=C(c2ccc(F)cc2)CC1c1ccc(Br)cc1` (centres unmarked) [Compound 20, 5-(4-bromophenyl)-3-(4-fluorophenyl)-4,5-dihydropyrazole-1-carboxamide] were 176 to 178 °C and over 50 µM.
Taken in the same sequence, the figures for `CCCCCCCCOc1ccc(C2CC(c3ccccc3)=NN2C(N)=S)cc1` (centres unmarked) [Compound 24, 4,5-dihydro-5-(4-(octyloxy)phenyl)-3-phenylpyrazole-1-carbothioamide] were 90.4 to 92.1 °C and over 50 µM.
As to `Cc1ccc(-c2cc(-c3ccc(F)cc3)[nH]n2)cc1` [Compound 32, 5-(4-fluorophenyl)-3-(4-methylphenyl)-1H-pyrazole], the EC50 in data set [1] (Schistosoma mansoni) was over 50 µM.
Take `CCCCCCCCCOc1ccc(C2CC(c3ccccc3)=NN2C(N)=S)cc1` (centres unmarked) [Compound 25, 4,5-dihydro-5-(4-(nonyloxy)phenyl)-3-phenylpyrazole-1-carbothioamide]: the melting point was 86.4 to 88.2 °C. The molecule also returned a concentration giving a half-maximal response (EC50) in data set [1] (Schistosoma mansoni) of over 50 µM.
Molecule `Fc1ccc(-c2cc(-c3ccc(Cl)cc3)n[nH]2)cc1` [Compound 34, 3-(4-chlorophenyl)-5-(4-fluorophenyl)-1H-pyrazole] displayed an EC50 in data set [1] (Schistosoma mansoni) of over 50 µM.
Consider `CCCCCCCCCOc1ccc(C2CC(c3ccc(F)cc3)=NN2C(N)=S)cc1` (centres unmarked) [Compound 29, 3-(4-fluorophenyl)-4,5-dihydro-5-(4-(nonyloxy)phenyl)pyrazole-1-carbothioamide], for which the melting point lay in the range of 113 to 114 °C. In data set [1] (Schistosoma mansoni), the 50% effective concentration (EC50) was over 50 µM.
Taken in the same sequence, the figures for `CCCCCCCCCCOc1ccc(C2CC(c3ccc(F)cc3)=NN2C(N)=S)cc1` (centres unmarked) [Compound 30, 3-(4-fluorophenyl)-4,5-dihydro-5-(4-(decyloxy)phenyl)pyrazole-1-carbothioamide] were 105.5 to 108.4 °C and over 50 µM.
The like results for `CCCCCCCCCCCCOc1ccc(C2CC(c3ccccc3)=NN2C(N)=S)cc1` (centres unmarked) [Compound 27, 5-(4-(dodecyloxy)phenyl)-4,5-dihydro-3-phenylpyrazole-1-carbothioamide] were, in that order, 94.2 °C and over 50 µM.
Taken in the same sequence, the figures for `CCCCCCCCCCOc1ccc(C2CC(c3ccccc3)=NN2C(N)=S)cc1` (centres unmarked) [Compound 26, 5-(4-(decyloxy)phenyl)-4,5-dihydro-3-phenylpyrazole-1-carbothioamide] were 96.2 to 98.9 °C and over 50 µM.
In turn, `CCCCCCCCCCCCCCOc1ccc(C2CC(c3ccc(F)cc3)=NN2C(N)=S)cc1` (centres unmarked) [Compound 31, 3-(4-fluorophenyl)-4,5-dihydro-5-(4-(tetradecyloxy)phenyl)pyrazole-1-carbothioamide] came in with a melting point of 92.2 to 94.6 °C. The EC50 in data set [1] (Schistosoma mansoni) is over 50 µM.
Taken in the same sequence, the figures for `CCCCCCCCCCCCCCOc1ccc(C2CC(c3ccccc3)=NN2C(N)=S)cc1` (centres unmarked) [Compound 28, 4,5-dihydro-3-phenyl-5-(4-(tetradecyloxy)phenyl)pyrazole-1-carbothioamide] were 97 to 99.2 °C and over 50 µM.
Taken in the same sequence, the figures for `Fc1ccc(-c2cc(-c3ccc(Br)cc3)n[nH]2)cc1` [Compound 33, 3-(4-bromophenyl)-5-(4-fluorophenyl)-1H-pyrazole] were 217 to 219 °C and over 50 µM.
`CCCCCCCCCCOc1ccc(C2CC(c3ccc(F)cc3)=NN2C(N)=O)cc1` (centres unmarked) [Compound 18, 5-(4-(decyloxy)phenyl)-3-(4-fluorophenyl)-4,5-dihydropyrazole-1-carboxamide]: in data set [1], the “Time until all parasites were dead” value was at most 24 h. The “Antiparasitic activity in initial screen” value in data set [1] is “showed antiparasitic activity”. Also, the figures for the EC50 in data set [1] (Schistosoma mansoni) and in data set [1] were under 20 µM and 14.6 µM, respectively. Moreover, the cytotoxic concentration (CC50) at 72 h in data set [2] is 159 µM; in data set [4], over 200 µM. For the same molecule, the “Monkey cells SI (selectivity index)” value in data set [3] was 10.9. In addition, the “Human cells SI (selectivity index)” value in data set [5] is reported as over 13.7.
For `CN(C)c1ccc(C2CC(c3ccc(F)cc3)=NN2C(N)=O)cc1` (centres unmarked) [Compound 21, 5-(4-(dimethylamino)phenyl)-3-(4-fluorophenyl)-4,5-dihydropyrazole-1-carboxamide], in data set [1], the “Time until all parasites were dead” value turned out to be 48 h, the “Antiparasitic activity in initial screen” value was “showed antiparasitic activity” and the half-maximal effective concentration (EC50) turned out to be 19.8 µM. This molecule also returned a concentration for a half-maximal effect (EC50) in data set [1] (Schistosoma mansoni) of under 20 µM. The same molecule gave a 50% cytotoxic concentration (CC50) at 72 h in data set [2] of over 200 µM. The “Monkey cells SI (selectivity index)” value in data set [3] is on record as over 10.1. Besides, the CC50 at 72 h in data set [4] is over 200 µM. For the same molecule, the “Human cells SI (selectivity index)” value in data set [5] is recorded as over 10.1.
